# Test system: NF-kB transcription factor
# Experiment: Luciferase trial: inhibition of NF-kB activation by TNFα in 5.1 linfoid cells (Jurkat clone, HIV-LTR luciferase)
# Assay type: cell-based
# Conditions: concentration 125 μg/ml, 30 min pre-incubation, TNFα 2 ng/ml 6 hours
# Description: Cells. A cellular line 5.1, that is a clone derived from Jurkat stably transfected with a plasmid that contains the gene of the luciferase channelled by the HIV-LTR promoter, an exponential growth is maintained in a RPMI 1640 medium supplemented with a 10% of an foetal bovine serum deactivated by heat, 2 mM of L-glutamine, 1 mM HEPES, antibiotics and 200 μg/ml of G418. Luciferase Trial. […] Next, the cells were damaged in 25 mM tris-phosphate pH 7,8, 8 mM MgCl2 1 mM DTT, 1% Triton X-100, y 7% glycerol. The luciferase activity was measured using Autolumat LB 9501 following the instructions of the luciferase trial kit and the protein concentration was measured by the Bradford method. In order eliminate the background noise caused by the lysis solution, this value was deducted in each value of the experiment and the activation was expressed as proportional induction compared to the untreated cells. Cells. The 5.1 cellular line was used, as and how described in example 1. Luciferase Trial. The 5.1 cellular line was pre-incubated for 30 minutes with oleic acid in the concentrations as stated, followed by stimulation with TNFα (2 ng/ml) for 6 hours. The NF-kB transcriptional activity was measured in the same way as in example 1. Cells. The 5.1 cellular line was used, as and how described in example 1. Luciferase Trial. […] The NF-kB transcriptional activity was measured in the same way as in example 1.
smiles,measurement,value
CCCCCCCC/C=C\CCCCCCCC(=O)O [oleic acid],"activation index (NF-kB transcription factor activation, luciferase, proportional induction compared to untreated cells)",7-8

# From patent US20080306037A1, “Product for Use in the Prevention and Treatment of Cardiovascular Diseases, Cancer and Chronic Inflammatory Diseases” (priority 2005, published 2008)
